Test [1] addresses Replication protein A 70 kDa DNA-binding subunit (Homo sapiens) (UniProt P27694). Briefly: Inhibition of recombinant human N-terminal domain of RPA70 DNA binding domain-F binding to 30-mer double strand DNA at <100 uM preincubated for 5mins before dsDNA addition measured after 30 mins by electrophoretic mobility shift assay. Background: A gel shift assay detects complexes by their altered migration in electrophoresis.

Test [2] deals with Cellular tumor antigen p53/Replication protein A 70 kDa DNA-binding subunit (Homo sapiens, UniProt P04637+P27694). Briefly: Inhibition of GST-tagged p53/recombinant human N-terminal domain of RPA70 DNA binding domain interaction by ELISA-like plate binding assay.
For test [3], the target named is Replication protein A 70 kDa DNA-binding subunit (Homo sapiens) (UniProt P27694). Briefly: Inhibition of recombinant human N-terminal domain of RPA70 DNA binding domain-F binding to 30-mer single strand DNA at <100 uM preincubated for 5mins before ssDNA addition measured after 30 mins by electrophoretic mobility shift assay.

Calls of active or inactive are those of the source. The rule behind the calls is not given here.

Chain of Replication protein A 70 kDa DNA-binding subunit (Homo sapiens) (P27694 whole entry, the tested form may be a part): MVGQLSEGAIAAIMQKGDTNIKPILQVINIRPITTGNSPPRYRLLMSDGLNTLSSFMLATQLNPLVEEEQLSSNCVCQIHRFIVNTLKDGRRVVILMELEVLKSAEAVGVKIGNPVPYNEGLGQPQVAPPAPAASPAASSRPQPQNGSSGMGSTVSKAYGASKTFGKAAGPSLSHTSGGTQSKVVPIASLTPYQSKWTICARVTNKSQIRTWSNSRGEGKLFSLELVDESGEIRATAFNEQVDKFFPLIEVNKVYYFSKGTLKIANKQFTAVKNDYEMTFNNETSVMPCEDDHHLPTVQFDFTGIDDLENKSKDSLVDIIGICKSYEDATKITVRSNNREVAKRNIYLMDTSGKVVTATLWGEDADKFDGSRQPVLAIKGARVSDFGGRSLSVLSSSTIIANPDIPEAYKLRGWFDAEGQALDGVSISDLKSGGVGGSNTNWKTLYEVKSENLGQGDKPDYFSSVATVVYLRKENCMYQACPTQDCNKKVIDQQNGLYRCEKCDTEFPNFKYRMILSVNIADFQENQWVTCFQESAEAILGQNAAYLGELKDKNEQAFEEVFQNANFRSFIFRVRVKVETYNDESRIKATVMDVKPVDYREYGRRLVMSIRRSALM
Chain of Cellular tumor antigen p53/Replication protein A 70 kDa DNA-binding subunit (P04637 whole entry, the tested form may be a part): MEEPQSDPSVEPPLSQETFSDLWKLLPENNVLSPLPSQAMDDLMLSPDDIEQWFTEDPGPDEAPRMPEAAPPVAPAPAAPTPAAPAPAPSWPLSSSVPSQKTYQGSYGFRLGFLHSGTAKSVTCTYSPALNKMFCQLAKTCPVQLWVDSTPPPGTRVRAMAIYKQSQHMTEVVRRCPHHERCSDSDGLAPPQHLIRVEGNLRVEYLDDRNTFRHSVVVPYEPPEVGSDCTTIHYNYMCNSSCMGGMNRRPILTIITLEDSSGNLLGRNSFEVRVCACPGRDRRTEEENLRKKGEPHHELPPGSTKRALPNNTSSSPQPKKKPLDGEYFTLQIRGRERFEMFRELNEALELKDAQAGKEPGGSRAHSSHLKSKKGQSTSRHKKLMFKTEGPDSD
Chain of Cellular tumor antigen p53/Replication protein A 70 kDa DNA-binding subunit (P27694 whole entry, the tested form may be a part): as the sequence (P27694 whole entry, the tested form may be a part) above

With `CC(C)C1=CC23CCC4C(C)(C(=O)O)CCCC4(C)C2CC1C(C(=O)O)C3C(=O)O` (stereo not drawn), the inhibition entry in test [1] was “Active”. Moreover, in test [2], the IC50 came to 10 µM. Besides, the inhibition result in test [3] was “inactive”.

As a reminder, the IC50 is the concentration that inhibits the measured activity by half.
